Assay results reported in patent US12275706B2, “Malate salt of N-(4-{[6,7-bis(methyloxy) quinolin-4-yl]oxy}phenyl)-N′-(4-fluorophenyl)cyclopropane-1,1-dicarboxamide, and crystalline forms thereof for the treatment of cancer” (Exelixis, Inc., priority 2009, dated 2025).

Tests used:
[1] = Salt screen: salt formation, crystallinity, hygroscopicity and other data; settings: Table 1
[2] = Solid state stability on exposure to high humidity and temperature; type: physicochemical
Text: Other solid state properties which may be used to characterize the crystalline N-1 forms of Compounds (I) and (II) are shown in the figures and discussed in the examples below.

[3] = Storage stability at controlled temperature/relative humidity; type: physicochemical
[4] = DSC/TGA thermal stability; type: physicochemical
Protocol: (§1) The amount of water taken up was calculated at about 0.60 wt % at 90% RH. […] The amount of water associated with this salt was calculated at about 0.5 wt % by Karl Fischer analysis and correlates with TGA and GVS analysis.
The TGA measurements were performed in a TA Instruments™ model Q500 or 2950, employing an open pan setup. The sample (about 10-30 mg) was placed in a platinum pan previously tared. The weight of the sample was measured accurately and recorded to a thousand of a milligram by the instrument. The furnace was purged with nitrogen gas at 100mL/min. Data were collected between room temperature and 300° C. at 10° C./min heating rate.
DSC measurements were performed in a TA Instruments™ model Q2000, Q1000 or 2920, employing an open pan setup. The sample (about 2-6 mg) was weighed in an aluminum pan and recorded accurately recorded to a hundredth of a milligram, and transferred to the DSC. The instrument was purged with nitrogen gas at 50 mL/min. Data were collected between room temperature and 300° C. at 10° C./min heating rate. The plot was made with the endothermic peaks pointing down.

[5] = Moisture sorption (water uptake); type: physicochemical
Protocol: as §1
Moisture sorption isotherms were collected in a VTI SGA-100 Symmetric Vapor Analyzer using approximately 10 mg of sample. The sample was dried at 60° C. until the loss rate of 0.0005 wt %/min was obtained for 10 minutes. The sample was tested at 25° C. and 3 or 4, 5, 15, 25, 35, 45, 50, 65, 75, 85, and 95% RH. Equilibration at each RH was reached when the rate of 0.0003 wt %/min for 35 minutes was achieved or a maximum of 600 minutes.

[6] = Karl Fischer water analysis; type: physicochemical; settings: correlates with TGA and GVS
Protocol: as §1

[7] = Water solubility of free base and salts (salt screen); settings: for Solubility: water, 10 mg solids per mL water
physchem = settings: water, thermodynamic from solid

## CC(=O)O [Acetate]
[1]
  other data relating to the free base and each salt (salt formation, crystallinity, hygroscopicity, remarks): no salt formation; mixture of free base and acid

## C1=Cc2cccc(OC[C@H]3CNCCO3)c2C1.O=S(=O)(O)c1ccccc1 [Benzenesulfonate]
[1]
  other data relating to the free base and each salt (salt formation, crystallinity, hygroscopicity, remarks): Crystalline Salt; possible sulfonic acid formation

## Cl [Chloride]
[2]; high humidity (75% humidity) and high temperature (40° C.)
  moisture sensitivity, phase: undesirable moisture sensitivity, changing phase
[1]
  other data relating to the free base and each salt (salt formation, crystallinity, hygroscopicity, remarks): Crystalline but Hygroscopic; possible hydrate

## COc1cc2nccc(Oc3ccc(NC(=O)C4(C(=O)Nc5ccc(F)cc5)CC4)cc3)c2cc1OC.O=C(O)C[C@H](O)C(=O)O [Compound (I), N-(4-{[6,7-bis(methyloxy)quinolin-4-yl]oxy}phenyl)-N′-(4-fluorophenyl)cyclopropane-1,1-dicarboxamide, (L) Malate Salt]
[3]; 25° C./60% relative humidity (RH)
  change in assay, purity, moisture and dissolution: no change in assay, purity, moisture and dissolution
[3]; 40° C./60% RH
  change in assay, purity, moisture and dissolution: no change in assay, purity, moisture and dissolution
[4]
  solvent losses (DSC/TGA): No solvent losses were observed
  stable up to (DSC/TGA): up to 185 °C
[5]
  uptake of water, reversibility: reversible with a slight hysteresis
[5]; at 90% RH
  amount of water taken up: about 0.60 wt %
[6]
  amount of water associated with the salt: about 0.5 wt %
[2]; 75% RH at 40° C. for 1 week
  solid state phase and degree of crystallinity: remained unchanged
[7]
  solubility (in words): sufficient solubility for use in a pharmaceutical composition
  Solubility: 59 µg/mL

## COc1cc2nccc(Oc3ccc(NC(=O)C4(C(=O)Nc5ccc(F)cc5)CC4)cc3)c2cc1OC [Free base, N-(4-{[6,7-bis(methyloxy)quinolin-4-yl]oxy}phenyl)-N′-(4-fluorophenyl)cyclopropane-1,1-dicarboxamide]
physchem
  Solubility: < 1 µg/mL
[1]
  other data relating to the free base and each salt (salt formation, crystallinity, hygroscopicity, remarks): very low solubility

## O=S(=O)(O)O [Sulfate]
[1]
  other data relating to the free base and each salt (salt formation, crystallinity, hygroscopicity, remarks): Crystalline salt, low solubility

## Benzoate
[1]
  other data relating to the free base and each salt (salt formation, crystallinity, hygroscopicity, remarks): no salt formation; mixture of free base and acid

## Fumarate
[1]
  other data relating to the free base and each salt (salt formation, crystallinity, hygroscopicity, remarks): Crystalline Salt, low solubility

## L-Lactate
[1]
  other data relating to the free base and each salt (salt formation, crystallinity, hygroscopicity, remarks): Amorphous, salt

## Malonate
[1]
  other data relating to the free base and each salt (salt formation, crystallinity, hygroscopicity, remarks): Crystalline salt, low solubility

## Phosphate
[5]; highest among the salts tested
  weight gain due to absorption of H2O: 8%
[7]
  Solubility: 26 µg/mL
[1]
  other data relating to the free base and each salt (salt formation, crystallinity, hygroscopicity, remarks): Crystalline but Hygroscopic.

## Tosylate
[7]
  Solubility: 7 µg/mL
[1]
  other data relating to the free base and each salt (salt formation, crystallinity, hygroscopicity, remarks): Crystalline salt, low solubility
